# The source made the active and inactive calls. The calls are words filed in the database; no cut-off is given here.
# What was measured:
# SR [1] = experiment: Cytotoxicity against human SR cells at 10 uM after 48 hrs by SRB assay; format: functional
# [2] = Cytotoxicity against human IGROV1 cells at 10 uM after 48 hrs by SRB assay; format: functional; details: IGROV-1, 48 h, read-out: GI
# [3] = Cytotoxicity against human COLO205 cells at 10 uM after 48 hrs by SRB assay; format: functional; details: COLO 205, 48 h, read-out: GI
# MDA-MB-468 = experiment: Cytotoxicity against human MDA-MB-468 cells at 10 uM after 48 hrs by SRB assay; format: functional
# MDA-MB-231 = experiment: Cytotoxicity against human MDA-MB-231 cells at 10 uM after 48 hrs by SRB assay; format: functional
# [4] = Cytotoxicity against human OVCAR8 cells at 10 uM after 48 hrs by SRB assay; format: functional; details: OVCAR-8, 48 h, read-out: GI
# MCF7 [5] = experiment: Cytotoxicity against human MCF7 cells at 10 uM after 48 hrs by SRB assay; format: functional; details: MCF7, 48 h, read-out: GI
# NCI-H522 = experiment: Cytotoxicity against human NCI-H522 cells at 10 uM after 48 hrs by SRB assay; format: functional
# [6] = Cytotoxicity against human Hs 578T cells at 10 uM after 48 hrs by SRB assay; format: functional; details: read-out: GI
# [7] = Cytotoxicity against human SNB75 cells at 10 uM after 48 hrs by SRB assay; format: functional; details: SNB-75, 48 h, read-out: GI
# [8] = Cytotoxicity against human SF539 cells at 10 uM after 48 hrs by SRB assay; format: functional; details: SF-539, 48 h, read-out: GI
# ACHN = experiment: Cytotoxicity against human ACHN cells at 10 uM after 48 hrs by SRB assay; format: functional; details: read-out: GI
# K562 [9] = experiment: Cytotoxicity against human K562 cells at 10 uM after 48 hrs by SRB assay; format: functional; details: K562, 48 h, read-out: GI
# [10] = Cytotoxicity against human HOP92 cells at 10 uM after 48 hrs by SRB assay; format: functional; details: HOP-92, 48 h, read-out: GI
# SK-MEL-5 = experiment: Cytotoxicity against human SK-MEL-5 cells at 10 uM after 48 hrs by SRB assay; format: functional
# SK-MEL-2 = experiment: Cytotoxicity against human SK-MEL-2 cells at 10 uM after 48 hrs by SRB assay; format: functional
# Malme-3M = experiment: Cytotoxicity against human MALME-3M cells at 10 uM after 48 hrs by SRB assay; format: functional
# [11] = Cytotoxicity against human OVCAR5 cells at 10 uM after 48 hrs by SRB assay; format: functional; details: OVCAR-5, 48 h, read-out: GI
# A498 = experiment: Cytotoxicity against human A498 cells at 10 uM after 48 hrs by SRB assay; format: functional
# [12] = Cytotoxicity against human MOLT4 cells at 10 uM after 48 hrs by SRB assay; format: functional; details: MOLT-4, 48 h, read-out: GI
# [13] = Cytotoxicity against human SW620 cells at 10 uM after 48 hrs by SRB assay; format: functional; details: SW-620, 48 h, read-out: GI
# NCI-H322M = experiment: Cytotoxicity against human NCI-H322M cells at 10 uM after 48 hrs by SRB assay; format: functional; details: read-out: GI
# [14] = Cytotoxicity against human SF268 cells at 10 uM after 48 hrs by SRB assay; format: functional; details: SF-268, 48 h, read-out: GI
# [15] = Cytotoxicity against human Caki1 cells at 10 uM after 48 hrs by SRB assay; format: functional; details: CAKI-1, 48 h, read-out: GI
# HT-29 = experiment: Cytotoxicity against human HT-29 cells at 10 uM after 48 hrs by SRB assay; format: functional
# NCI-H460 = experiment: Cytotoxicity against human NCI-H460 cells at 10 uM after 48 hrs by SRB assay; format: functional
# [16] = Cytotoxicity against human HCT116 cells at 10 uM after 48 hrs by SRB assay; format: functional; details: HCT-116, 48 h, read-out: GI
# 786-0 = experiment: Cytotoxicity against human 786-0 cells at 10 uM after 48 hrs by SRB assay; format: functional
# [17] = Cytotoxicity against human RXF393 cells at 10 uM after 48 hrs by SRB assay; format: functional; details: RXF 393, 48 h, read-out: GI
# KM12 = experiment: Cytotoxicity against human KM12 cells at 10 uM after 48 hrs by SRB assay; format: functional
# T47D = experiment: Cytotoxicity against human T47D cells at 10 uM after 48 hrs by SRB assay; format: functional
# [18] = Cytotoxicity against human HL-60(TB) cells after 48 hrs by SRB assay; format: functional; details: HL-60, 48 h, read-out: LC50 (the source's name)
# MCF7 [19] = experiment: Cytotoxicity against human MCF7 cells after 48 hrs by SRB assay; format: functional; details: MCF7, 48 h, pooled result: one value given for 6 cell lines, strains, targets or settings
# K562 [20] = experiment: Cytotoxicity against human K562 cells after 48 hrs by SRB assay; format: functional; details: K562, 48 h
# [21] = Cytotoxicity against human MOLT4 cells after 48 hrs by SRB assay; format: functional; details: MOLT-4, 48 h, read-out: LC50 (the source's name)
# Dihydrofolate reductase = biological target: T1, Dihydrofolate reductase (Homo sapiens, UniProt P00374); experiment: Inhibition of human recombinant DHFR expressed in Escherichia coli by spectrophotometric analysis
# T1 sequence (P00374 whole entry): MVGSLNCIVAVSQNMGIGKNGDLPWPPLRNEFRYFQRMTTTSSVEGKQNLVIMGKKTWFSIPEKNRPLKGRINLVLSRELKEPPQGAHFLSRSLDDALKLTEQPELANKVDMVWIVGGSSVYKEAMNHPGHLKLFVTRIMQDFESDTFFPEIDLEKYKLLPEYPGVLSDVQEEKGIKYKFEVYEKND
# [22] = Cytotoxicity against human SF268 cells after 48 hrs by SRB assay; format: functional; details: SF-268, 48 h, pooled result: one value given for 6 cell lines, strains, targets or settings
# A549 = experiment: Cytotoxicity against human A549 cells after 48 hrs by SRB assay; format: functional; details: A549, 48 h, pooled result: one value given for 8 cell lines, strains, targets or settings
# Calf thymus DNA [23] = experiment: Binding affinity to calf thymus DNA assessed as melting temperature by spectrophotometric analysis (reference value: 60 degC); format: nucleic-acid assay; details: Bos taurus
# Calf thymus DNA [24] = experiment: Binding affinity to calf thymus DNA by fluorescence spectrophotometric analysis; format: nucleic-acid assay; details: Bos taurus
# SR [25] = experiment: Cytotoxicity against human SR cells after 48 hrs by SRB assay; format: functional
# [26] = Cytotoxicity against human PC3 cells after 48 hrs by SRB assay; format: functional; details: PC-3, 48 h
# [27] = pooled result: one value given for 2 cell lines, strains, targets or settings
compound,measurement,setting,value
Cc1nc2ccc(Nc3nc(NCCN)nc(Nc4ccc(F)cc4)n3)cc2n1Cc1ccccc1,inhibition of growth at 10 µM,SR [1]; read-out: GI,88.9%
same,inhibition of growth at 10 µM,[2],0.38%
same,inhibition of growth at 10 µM,[3],33.6%
same,inhibition of growth at 10 µM,"MDA-MB-468; MDA-MB-468, 48 h, read-out: GI",49.5%
same,inhibition of growth at 10 µM,"MDA-MB-231; MDA-MB-231, 48 h, read-out: GI",42.9%
same,inhibition of growth at 10 µM,[4],17.7%
same,inhibition of growth at 10 µM,MCF7 [5],39.1%
same,inhibition of growth at 10 µM,"NCI-H522; NCI-H522, 48 h, read-out: GI",31%
same,inhibition of growth at 10 µM,[6],20.5%
same,inhibition of growth at 10 µM,[7],20%
same,inhibition of growth at 10 µM,[8],0.19%
same,inhibition of growth at 10 µM,ACHN,8.19%
same,inhibition of growth at 10 µM,K562 [9],61.3%
same,inhibition of growth at 10 µM,[10],56.8%
same,inhibition of growth at 10 µM,"SK-MEL-5; SK-MEL-5, 48 h, read-out: GI",25.5%
same,inhibition of growth at 10 µM,"SK-MEL-2; SK-MEL-2, 48 h, read-out: GI",19.9%
same,inhibition of growth at 10 µM,Malme-3M; read-out: GI,26%
same,inhibition of growth at 10 µM,[11],6.17%
same,inhibition of growth at 10 µM,"A498; A498, 48 h, read-out: GI",25.5%
same,inhibition of growth at 10 µM,[12],40.7%
same,inhibition of growth at 10 µM,[13],1.71%
same,inhibition of growth at 10 µM,NCI-H322M,7.76%
same,inhibition of growth at 10 µM,[14],19.2%
same,inhibition of growth at 10 µM,[15],1.79%
same,inhibition of growth at 10 µM,"HT-29; HT-29, 48 h, read-out: GI",55.5%
same,inhibition of growth at 10 µM,"NCI-H460; NCI-H460, 48 h, read-out: GI",21.8%
same,inhibition of growth at 10 µM,[16],39.7%
same,inhibition of growth at 10 µM,"786-0; 786-0, 48 h, read-out: GI",20.5%
same,inhibition of growth at 10 µM,[17],25.8%
same,inhibition of growth at 10 µM,"KM12; KM12, 48 h, read-out: GI",26.8%
same,inhibition of growth at 10 µM,T47D; read-out: GI,23.2%
Cc1nc2cc(Nc3nc(Nc4ccc(F)cc4)nc(N4CCCC4)n3)ccc2n1Cc1ccccc1,growth inhibition (GI),SR [1],Active
same,growth inhibition (GI),MDA-MB-468,Active
same,growth inhibition (GI),MDA-MB-231,Active
same,CC50,[18],> 100 µM
same,inhibition of growth at 10 µM,MCF7 [5],97%
same,growth inhibition (GI),NCI-H522,Active
same,inhibition of growth at 10 µM,[6],69.4%
same,GI50,MCF7 [19],1.98 µM
same,LC50 (concentration killing 50% of cells),MCF7 [19],6.69 µM
same,TGI,MCF7 [19],4.88 µM
same,inhibition of growth at 10 µM,ACHN,88.5%
same,inhibition of growth at 10 µM,K562 [9],100%
same,LC50,K562 [20],> 100 µM
same,growth inhibition (GI),SK-MEL-5,Active
same,CC50,[21],> 100 µM
same,growth inhibition (GI),SK-MEL-2,Active
same,IC50,Dihydrofolate reductase,0.11 µM
same,GI50,[22],2.08 µM
same,LC50 (concentration killing 50% of cells),[22],8.64 µM
same,TGI,[22],17.6 µM
same,growth inhibition (GI),Malme-3M,Active
same,GI50,A549,1.82 µM
same,LC50,A549,14.5 µM
same,TGI,A549,4.02 µM
same,growth inhibition (GI),A498,Active
same,Tm,Calf thymus DNA [23],71.5 °C
same,inhibition of growth at 10 µM,NCI-H322M,78.6%
same,growth inhibition (GI),HT-29,Active
same,growth inhibition (GI),NCI-H460,Active
same,Ka,Calf thymus DNA [24],5.46 ×10⁴ /M
same,growth inhibition (GI),786-0,Active
same,LC50 (concentration killing 50% of cells),SR [25],> 100 µM
same,growth inhibition (GI),KM12,Active
same,LC50,[26],6 µM
same,GI50,[26]; [27],1.82 µM
same,TGI,[26]; [27],3.82 µM
same,growth inhibition (GI),T47D,Active
